According to the SangsterLogP compilation:

assay: method code SF-AS, from DOI: 10.1016/0048-3575(91)90045-n

SMILES	logP
O=C(NC(=O)c1c(F)cccc1F)Nc1cc(C(F)(F)F)c(Cl)cc1Cl	3.24
O=C(NC(=O)c1c(F)cccc1F)Nc1c(F)ccc(C(F)(F)F)c1Br	2.22
O=C(NC(=O)c1c(F)cccc1F)Nc1ccc(Cl)cc1F	1.91
O=C(NC(=O)c1c(F)cccc1F)Nc1cc(C(F)(F)F)c(Cl)cc1F	3.02
Cc1cc(NC(=O)NC(=O)c2c(F)cccc2F)ccc1Br	2.8
O=C(NC(=O)c1c(F)cccc1F)Nc1cc(Cl)c(F)c(Cl)c1F	2.9
O=C(NC(=O)c1c(F)cccc1F)Nc1cccc(C(F)(F)F)c1	2.56
Cc1cc(NC(=O)NC(=O)c2c(F)cccc2F)cc(C)c1Br	3.28
O=C(NC(=O)c1c(F)cccc1F)Nc1ccc(Br)cc1	2.29
O=C(NC(=O)c1c(F)cccc1F)Nc1ccccc1	1.16
Cc1cc(NC(=O)NC(=O)c2c(F)cccc2F)cc(C)c1C	2.5
CCc1cc(NC(=O)NC(=O)c2c(F)cccc2F)ccc1Br	3.33
CCc1ccc(NC(=O)NC(=O)c2c(F)cccc2F)cc1	2.2
Cc1cccc(NC(=O)NC(=O)c2c(F)cccc2F)c1C	1.35
O=C(NC(=O)c1c(F)cccc1F)Nc1ccc(Cl)cc1	2.12
C=CCOc1cc(NC(=O)NC(=O)c2c(F)cccc2F)c(F)cc1Cl	2.76
O=C(NC(=O)c1c(F)cccc1F)Nc1cc(Cl)cc(C(F)(F)F)c1F	3.15
O=C(NC(=O)c1c(F)cccc1F)Nc1ccc(Cl)c(Cl)c1Cl	2.88
O=C(NC(=O)c1c(F)cccc1F)Nc1cc(C(F)(F)F)c(Br)c(C(F)(F)F)c1	4.56
O=C(NC(=O)c1c(F)cccc1F)Nc1ccc(Oc2ncc(C(F)(F)F)cc2Cl)c(Cl)c1Cl	4.46
O=C(NC(=O)c1c(F)cccc1F)Nc1cc(Cl)c(Cl)c(Cl)c1	3.76

SMILES	logP
Cc1c(NC(=O)NC(=O)c2c(F)cccc2F)ccc(Br)c1Cl	2.69
CCCCc1ccc(NC(=O)NC(=O)c2c(F)cccc2F)c(Br)c1	3.39
O=C(NC(=O)c1c(F)cccc1F)Nc1cc(OC(F)(F)F)c(Br)cc1F	3.24
COc1cc(Br)ccc1NC(=O)NC(=O)c1c(F)cccc1F	2.02
Cc1cc(C)cc(NC(=O)NC(=O)c2c(F)cccc2F)c1	2.17
O=C(NC(=O)c1c(F)cccc1F)Nc1ccccc1F	1.03
O=C(NC(=O)c1c(F)cccc1F)Nc1cc(Cl)cc(Cl)c1Br	3.04
O=C(NC(=O)c1c(F)cccc1F)Nc1cc(Cl)c(Oc2ncc(C(F)(F)F)cc2Cl)c(Cl)c1	5.54
Cc1ccc(C)c(NC(=O)NC(=O)c2c(F)cccc2F)c1	1.47
O=C(NC(=O)c1c(F)cccc1F)Nc1c(F)cc(Br)cc1F	1.73
Cc1cc(Oc2ncc(C(F)(F)F)cc2Cl)ccc1NC(=O)NC(=O)c1c(F)cccc1F	3.23
O=C(NC(=O)c1c(F)cccc1F)Nc1cc([N+](=O)[O-])c(Br)cc1F	2.11
Cc1c(Cl)cccc1NC(=O)NC(=O)c1c(F)cccc1F	1.82
O=C(NC(=O)c1c(F)cccc1F)Nc1ccc(Cl)c(Cl)c1	3
O=C(NC(=O)c1c(F)cccc1F)Nc1cc(Cl)cc(Cl)c1	3.17
Cc1c(Br)ccc(NC(=O)NC(=O)c2c(F)cccc2F)c1Cl	2.73
O=C(NC(=O)c1c(F)cccc1F)Nc1cc(C(F)(F)F)cc(Cl)c1Cl	3.27
O=C(NC(=O)c1c(F)cccc1F)Nc1cc(Cl)cc(C(F)(F)F)c1Cl	3.27
O=C(NC(=O)c1c(F)cccc1F)Nc1ccc(Cl)cc1Cl	2.18
Cc1cc(Oc2ncc(C(F)(F)F)cc2Cl)c(C)cc1NC(=O)NC(=O)c1c(F)cccc1F	3.84
Cc1cc(NC(=O)NC(=O)c2c(F)cccc2F)ccc1Cl	2.57

SMILES	logP
Cc1ccc(NC(=O)NC(=O)c2c(F)cccc2F)cc1Cl	2.69
O=C(NC(=O)c1c(F)cccc1F)Nc1cc(Cl)cc(C(F)(F)F)c1Br	3.26
CCCCc1ccc(NC(=O)NC(=O)c2c(F)cccc2F)c(C)c1	3.1
O=C(NC(=O)c1c(F)cccc1F)Nc1ccc(F)cc1	1.47
CC(C)Oc1cc(NC(=O)NC(=O)c2c(F)cccc2F)c(F)cc1Cl	2.84
CC(C)COc1cc(NC(=O)NC(=O)c2c(F)cccc2F)c(F)cc1Cl	3.79
O=C(NC(=O)c1c(F)cccc1F)Nc1cc(C(F)(F)F)cc(C(F)(F)F)c1Br	3.51
O=C(NC(=O)c1c(F)cccc1F)Nc1ccc(I)cc1	2.46
CSc1cc(Br)ccc1NC(=O)NC(=O)c1c(F)cccc1F	2.18
O=C(NC(=O)c1c(F)cccc1F)Nc1cccc(Cl)c1F	1.83
O=C(NC(=O)c1c(F)cccc1F)Nc1ccc(Br)c(Cl)c1F	2.86
O=C(NC(=O)c1c(F)cccc1F)Nc1ccc(Oc2ncc(C(F)(F)F)cc2Cl)c(Cl)c1	4.52
O=C(NC(=O)c1c(F)cccc1F)Nc1ccccc1Br	1.34
O=C(NC(=O)c1c(F)cccc1F)Nc1cc(C(F)(F)F)ccc1F	2.24
O=C(NC(=O)c1c(F)cccc1F)Nc1cc(C(F)(F)F)c(Br)cc1F	3.17
O=C(NC(=O)c1c(F)cccc1F)Nc1c(F)cc(Br)c(C(F)(F)F)c1Br	3.07
CCc1cc(Br)ccc1NC(=O)NC(=O)c1c(F)cccc1F	2.27
O=C(NC(=O)c1c(F)cccc1F)Nc1cc(Cl)ccc1Cl	2.19
O=C(NC(=O)c1c(F)cccc1F)Nc1cccc(Cl)c1Cl	2.09
Cc1cc(Br)ccc1NC(=O)NC(=O)c1c(F)cccc1F	2.03
O=C(NC(=O)c1c(F)cccc1F)Nc1ccccc1C(F)(F)F	1.17

SMILES	logP
O=C(NC(=O)c1c(F)cccc1F)Nc1cc(OC(F)(F)F)c(F)cc1F	2.48
O=C(NC(=O)c1c(F)cccc1F)Nc1ccc(F)c(C(F)(F)F)c1	2.64
O=C(NC(=O)c1c(F)cccc1F)Nc1cc(F)cc(C(F)(F)F)c1Cl	2.86
Cc1cc(Br)cc(C)c1NC(=O)NC(=O)c1c(F)cccc1F	2.12
O=C(NC(=O)c1c(F)cccc1F)Nc1ccc(Cl)cc1C(F)(F)F	1.98
C#CCOc1cc(NC(=O)NC(=O)c2c(F)cccc2F)c(F)cc1Cl	2.2
O=C(NC(=O)c1c(F)cccc1F)Nc1cc(Cl)c(Cl)c(Cl)c1Cl	2.9
O=C(NC(=O)c1c(F)cccc1F)Nc1cc(C(F)(F)F)cc(C(F)(F)F)c1	3.72
CCCCc1ccc(NC(=O)NC(=O)c2c(F)cccc2F)cc1C	3.64
O=C(NC(=O)c1c(F)cccc1F)Nc1ccc(Br)c(OC(F)(F)F)c1	3.48
O=C(NC(=O)c1c(F)cccc1F)Nc1ccc(Cl)c(C(F)(F)F)c1	3.33
CCCCc1ccc(NC(=O)NC(=O)c2c(F)cccc2F)c([N+](=O)[O-])c1	3.1
Cc1ccc(NC(=O)NC(=O)c2c(F)cccc2F)c(C)c1	1.46
O=C(NC(=O)c1c(F)cccc1F)Nc1cc(C(F)(F)F)c(F)cc1F	2.34
O=C(NC(=O)c1c(F)cccc1F)Nc1cc(Br)cc(C(F)(F)F)c1Cl	3.41
CCCCc1ccc(NC(=O)NC(=O)c2c(F)cccc2F)cc1Br	4.23
CCCCc1ccc(NC(=O)NC(=O)c2c(F)cccc2F)cc1	3.3
Cc1ccc(NC(=O)NC(=O)c2c(F)cccc2F)cc1C	2.1
